Measured values taken from PubChem BioAssay (NCI).
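Five compound concentrations were applied to cells in 96-well plates for 48 hours; endpoints were derived by simple linear interpolation of the resulting dose-response curve. Abbreviation: GI50, concentration required for 50% inhibition of growth. At the TGI there is no net growth.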

Legend:
Assay in all cases: NCI tumour cell line growth inhibition, 48 h
MOLT-4 leukemia = tested on: MOLT-4 leukemia
RPMI-8226 leukemia = tested on: RPMI-8226 leukemia
SW-620 colon = tested on: SW-620 colon
LXFL 529 NSCLC = tested on: LXFL 529 NSCLC
SK-MEL-28 melanoma = tested on: SK-MEL-28 melanoma
SNB-75 CNS = tested on: SNB-75 CNS
ACHN renal = tested on: ACHN renal
T-47D breast = tested on: T-47D breast
BT-549 breast = tested on: BT-549 breast
DMS 114 small cell lung = tested on: DMS 114 small cell lung

## COc1ccc(C#CCC(OC2OC(CO)C(O)C(O)C2O)C(O)c2ccc(OC)c(OC)c2)cc1OC (stereo not given)
MOLT-4 leukemia
  TGI: > 100 µM
RPMI-8226 leukemia
  TGI: > 100 µM
SW-620 colon
  TGI: > 100 µM
LXFL 529 NSCLC
  TGI: > 100 µM
SK-MEL-28 melanoma
  TGI: > 100 µM
SNB-75 CNS
  TGI: > 100 µM
ACHN renal
  TGI: > 100 µM

## COc1ccc(Cn2c(Br)c3c(c2-c2cc(OC)c(OC)c(OC)c2)CCc2sc(NC(C)=O)nc2-3)cc1
T-47D breast
  GI50: 4.65 µM
  TGI: > 100 µM
MOLT-4 leukemia
  GI50: 4.37 µM
  TGI: > 100 µM
RPMI-8226 leukemia
  GI50: 4.23 µM
  TGI: > 100 µM
SW-620 colon
  GI50: 3630 nM
  TGI: > 100 µM
SK-MEL-28 melanoma
  GI50: 5.09 µM
  TGI: > 100 µM
SNB-75 CNS
  GI50: 1820 nM
  TGI: > 100 µM
BT-549 breast
  GI50: 3.18 µM
  TGI: 19.4 µM
ACHN renal
  GI50: 5.27 µM
  TGI: 26.9 µM

## Nc1c(C(=O)Nc2ccccc2)sc2nc3c(cc12)CCCC3
T-47D breast
  GI50: 0.918 µM
  TGI: > 63.2 µM
MOLT-4 leukemia
  GI50: 0.693 µM
  TGI: > 100 µM
RPMI-8226 leukemia
  GI50: 0.681 µM
  TGI: 11.5 µM
SW-620 colon
  GI50: 403 nM
  TGI: > 100 µM
SK-MEL-28 melanoma
  GI50: 14.7 µM
  TGI: > 100 µM
SNB-75 CNS
  GI50: 551 nM
  TGI: 40.8 µM
BT-549 breast
  GI50: 3.89 µM
  TGI: > 100 µM
ACHN renal
  GI50: 1.61 µM
  TGI: > 100 µM

## CCCN1CCN(c2ccc3nc(-c4ccc5nc(-c6ccc(OCC)c(OCC)c6)[nH]c5c4)[nH]c3c2)CC1
T-47D breast
  GI50: 0.428 µM
  TGI: 5.66 µM
MOLT-4 leukemia
  GI50: 0.471 µM
  TGI: 3.34 µM
RPMI-8226 leukemia
  GI50: 0.387 µM
  TGI: 1.89 µM
SW-620 colon
  GI50: 207 nM
  TGI: 0.808 µM
SK-MEL-28 melanoma
  GI50: 0.755 µM
  TGI: 2.19 µM
SNB-75 CNS
  GI50: 425 nM
  TGI: 1.9 µM
BT-549 breast
  GI50: 1.13 µM
  TGI: 2.61 µM
ACHN renal
  GI50: 1 µM
  TGI: 2.6 µM

## CCc1ccc(Nc2cc(C)nc3nc(C)nn23)cc1
T-47D breast
  GI50: 21.3 µM
  TGI: > 100 µM
MOLT-4 leukemia
  GI50: 33.3 µM
  TGI: > 100 µM
RPMI-8226 leukemia
  GI50: 32 µM
  TGI: > 100 µM
SW-620 colon
  GI50: > 100000 nM
  TGI: > 100 µM
SK-MEL-28 melanoma
  GI50: 48.8 µM
  TGI: > 100 µM
SNB-75 CNS
  GI50: 35600 nM
  TGI: > 100 µM
BT-549 breast
  GI50: > 100 µM
  TGI: > 100 µM
ACHN renal
  GI50: 34.8 µM
  TGI: > 100 µM

## COc1cc2c3c(c4c5ccccc5[nH]c4c2c(OC)c1OC)C(=O)N(CCN1CCCCC1)C3=O
T-47D breast
  GI50: 6.09 µM
  TGI: > 25.5 µM
MOLT-4 leukemia
  GI50: 0.536 µM
  TGI: 9.23 µM
RPMI-8226 leukemia
  GI50: 1.06 µM
  TGI: 4.17 µM
SW-620 colon
  GI50: 474 nM
  TGI: 2.56 µM
SK-MEL-28 melanoma
  GI50: 1.74 µM
  TGI: 3.32 µM
SNB-75 CNS
  GI50: 2470 nM
  TGI: 7.19 µM
BT-549 breast
  GI50: 4.6 µM
  TGI: 13.4 µM
ACHN renal
  GI50: 0.4 µM
  TGI: 1.6 µM

## Cc1ccc(NC(=O)c2nc(S(C)=O)oc2-c2ccc(F)cc2)cc1Nc1nccc(-c2cccnc2)n1 (stereo not given)
T-47D breast
  GI50: 1.73 µM
  TGI: 3.68 µM
MOLT-4 leukemia
  GI50: 2.17 µM
  TGI: 6.82 µM
RPMI-8226 leukemia
  GI50: 2.43 µM
  TGI: 6.5 µM
SW-620 colon
  GI50: 2100 nM
  TGI: 4.01 µM
SK-MEL-28 melanoma
  GI50: 1.95 µM
  TGI: 3.97 µM
SNB-75 CNS
  GI50: 2310 nM
  TGI: 5.43 µM
BT-549 breast
  GI50: 1.74 µM
  TGI: 4.17 µM
ACHN renal
  GI50: 1.69 µM
  TGI: 3.1 µM

## Oc1cc2c(cc1O)-c1[nH]ncc1CC2
MOLT-4 leukemia
  TGI: 88.8 µM
SW-620 colon
  TGI: > 100 µM
LXFL 529 NSCLC
  TGI: > 100 µM
SK-MEL-28 melanoma
  TGI: > 100 µM
SNB-75 CNS
  TGI: 70.5 µM
DMS 114 small cell lung
  TGI: 75.2 µM
ACHN renal
  TGI: > 100 µM

## CC(=O)c1ccc(NCN2C(=O)c3ccccc3C2=O)cc1
T-47D breast
  TGI: > 100 µM
MOLT-4 leukemia
  TGI: > 100 µM
RPMI-8226 leukemia
  TGI: > 100 µM
SW-620 colon
  TGI: > 100 µM
SK-MEL-28 melanoma
  TGI: > 100 µM
SNB-75 CNS
  TGI: > 100 µM
BT-549 breast
  TGI: > 100 µM
ACHN renal
  TGI: > 100 µM

## C=C(CN1CCN(c2cccc(F)c2)CC1)c1ccc(C(=O)Nc2ccccc2N)cc1
T-47D breast
  GI50: 4.38 µM
  TGI: > 100 µM
MOLT-4 leukemia
  GI50: 0.315 µM
  TGI: 2.76 µM
RPMI-8226 leukemia
  GI50: 0.429 µM
  TGI: 2.89 µM
SW-620 colon
  GI50: 2530 nM
  TGI: > 100 µM
SK-MEL-28 melanoma
  GI50: 0.676 µM
  TGI: 38.6 µM
SNB-75 CNS
  GI50: 492 nM
  TGI: 6.24 µM
BT-549 breast
  GI50: 1.33 µM
  TGI: 12.6 µM
ACHN renal
  GI50: 4.59 µM
  TGI: 90.7 µM

## O=C(c1ccc2c3c(ccc(C(=O)C(F)(F)F)c13)CC2)C(F)(F)F
MOLT-4 leukemia
  TGI: > 100 µM
SW-620 colon
  TGI: > 100 µM
LXFL 529 NSCLC
  TGI: > 100 µM
SK-MEL-28 melanoma
  TGI: > 100 µM
SNB-75 CNS
  TGI: > 100 µM
DMS 114 small cell lung
  TGI: > 100 µM
ACHN renal
  TGI: > 100 µM

## O=C(/C=C/c1cccnc1)c1ccccc1O
T-47D breast
  GI50: 21 µM
  TGI: > 100 µM
MOLT-4 leukemia
  GI50: 23 µM
  TGI: 73.5 µM
RPMI-8226 leukemia
  GI50: 12.9 µM
  TGI: 39 µM
SW-620 colon
  GI50: 22500 nM
  TGI: 63.2 µM
SK-MEL-28 melanoma
  GI50: 24.1 µM
  TGI: 72.3 µM
SNB-75 CNS
  GI50: 16500 nM
  TGI: 59.1 µM
BT-549 breast
  GI50: 14.2 µM
  TGI: 28.5 µM
ACHN renal
  GI50: 16.7 µM
  TGI: 37.6 µM

## CCN(CC)CCOc1ccc(C(=C2CCCCC2)c2ccc(OCCN(CC)CC)cc2)cc1
MOLT-4 leukemia
  TGI: 2.59 µM
RPMI-8226 leukemia
  TGI: 4.94 µM
SW-620 colon
  TGI: 2.5 µM
LXFL 529 NSCLC
  TGI: 3.06 µM
SK-MEL-28 melanoma
  TGI: 2.64 µM
SNB-75 CNS
  TGI: 2.94 µM
ACHN renal
  TGI: 3.18 µM

## CC(=O)OCC1OC(Sc2ccccn2)C=CC1OC(C)=O (stereo not given)
MOLT-4 leukemia
  TGI: > 100 µM
SW-620 colon
  TGI: > 100 µM
LXFL 529 NSCLC
  TGI: > 100 µM
SK-MEL-28 melanoma
  TGI: > 100 µM
SNB-75 CNS
  TGI: > 100 µM
DMS 114 small cell lung
  TGI: > 100 µM
ACHN renal
  TGI: > 100 µM

## CN1CCCN(C(c2ccccc2)c2ccc(Br)cc2)CC1 (stereo not given)
T-47D breast
  GI50: 3.18 µM
  TGI: 19.2 µM
MOLT-4 leukemia
  GI50: 3.92 µM
  TGI: 58.2 µM
RPMI-8226 leukemia
  GI50: 9.04 µM
  TGI: 36.2 µM
SW-620 colon
  GI50: 2900 nM
  TGI: 10.6 µM
SK-MEL-28 melanoma
  GI50: 2.43 µM
  TGI: 5.97 µM
SNB-75 CNS
  GI50: 3100 nM
  TGI: 17.9 µM
BT-549 breast
  GI50: 4.89 µM
  TGI: 19.4 µM
ACHN renal
  GI50: 3.62 µM
  TGI: 14.1 µM

## Cc1cccc(NC(=O)CC#N)c1Cl
MOLT-4 leukemia
  TGI: > 100 µM
RPMI-8226 leukemia
  TGI: > 100 µM
SW-620 colon
  TGI: > 100 µM
LXFL 529 NSCLC
  TGI: > 100 µM
SK-MEL-28 melanoma
  TGI: > 100 µM
SNB-75 CNS
  TGI: > 100 µM
ACHN renal
  TGI: > 100 µM

## CC[C@]12CCCN3CC[C@]4(C(=C(C(=O)OC)C1)Nc1ccccc14)[C@@H]32
T-47D breast
  GI50: 16.6 µM
  TGI: 80.5 µM
MOLT-4 leukemia
  GI50: 18.8 µM
  TGI: 43.7 µM
RPMI-8226 leukemia
  GI50: 19.4 µM
  TGI: 51.2 µM
SW-620 colon
  GI50: 16200 nM
  TGI: 33.3 µM
SK-MEL-28 melanoma
  GI50: 21.3 µM
  TGI: 64.7 µM
SNB-75 CNS
  GI50: 13600 nM
  TGI: 61.9 µM
BT-549 breast
  GI50: 19.8 µM
  TGI: 46.7 µM
ACHN renal
  GI50: 15.3 µM
  TGI: 28.6 µM
